# Patent US6992169B2, “Carrier based drug delivery system” (Cyclacel Limited, priority 1998, dated 2006)
# Where no end group is shown, it is not given here.
# Columns and labels:
# [1] = biological target: purified recombinant human topoisomerase II (Homo sapiens, UniProt P11388); assay: Topoisomerase II inhibition assay (cleavage and relaxation); format: biochemical; conditions: test compound at 1 mM, 100 μM, or 10 μM; plasmid DNA, agarose gel
# Protocol: Topoisomerase II assay—Plasmid DNA (0.3 μg) was incubated at 37° C. with 4 units of purified recombinant human topoisomerase II in cleavage buffer (30 mM Tris.HCl, pH 7.6, 60 mM NaCl, 3 mM ATP, 15 mM mercaptoethanol, 8 mM MgCl2) with or without the addition of test compound (at 1 mM, 100 μM, or 10 μM final concentration). Reactions were stopped by the immediate addition of SDS (1% w/v final). Samples were treated with proteinase K (30 min at 37° C.) and extracted twice with an equal volume of […] CHCl3/i-amyl alcohol. […] Topoisomerase II inhibition was judged by the production of linear plasmid DNA, representing trapped cleavage intermediate, and by the ratio of substrate (spercoiled DNA) to product (relaxed DNA). A relaxation assay was performed identically, except that the reaction buffer was optimised for the detection of catalysis rather than cleavage, i.e. only 2 units of enzyme were used per sample. The reaction buffer was 50 mM Tris.HCl, pH 8, 120 mM KCl, 0.5 mM ATP, 0.5 mM dithiothreitol, 10 mM MgCl2. Topoisomerase II inhibition was judged by the ratio of substrate (supercoiled DNA) to product (relaxed DNA).
# [2] = system: HCT116; assay: Carcinoma cell line panel, SRB-assay; conditions: Homo sapiens, HCT-116, 96 h, read-out: 96-h IC50 cytotoxicity
# Protocol: (§1) After incubation for 96 h, cytotoxicity was assessed using a standard SRB-assay.
# [3] = system: A2780Cis^R; assay: Carcinoma cell line panel, SRB-assay; conditions: Homo sapiens, A2780cisR, 96 h, read-out: 96-h IC50 cytotoxicity
# Protocol: as §1
# [4] = system: A2780; assay: Carcinoma cell line panel, SRB-assay; conditions: Homo sapiens, A2780, 96 h, read-out: 96-h IC50 cytotoxicity
# Protocol: as §1
# [5] = system: KM12; assay: Carcinoma cell line panel, SRB-assay; conditions: Homo sapiens, KM12, 96 h, read-out: 96-h IC50 cytotoxicity
# Protocol: as §1
# [6] = system: DLD-1; assay: Carcinoma cell line panel, SRB-assay; conditions: Homo sapiens, DLD-1, 96 h, read-out: 96-h IC50 cytotoxicity
# Protocol: as §1
# [7] = system: CH1Dox^R; assay: Carcinoma cell line panel, SRB-assay; conditions: 96 h, read-out: 96-h IC50 cytotoxicity
# Protocol: as §1
# [8] = system: LS174T; assay: Carcinoma cell line panel, SRB-assay; conditions: Homo sapiens, 96 h, read-out: 96-h IC50 cytotoxicity
# Protocol: as §1
# [9] = system: HT29; assay: Carcinoma cell line panel, SRB-assay; conditions: Homo sapiens, HT-29, 96 h, read-out: 96-h IC50 cytotoxicity
# Protocol: as §1
# [10] = system: CH1Taxol^R; assay: Carcinoma cell line panel, SRB-assay; conditions: 96 h, read-out: 96-h IC50 cytotoxicity
# Protocol: as §1
# [11] = system: COLO205; assay: Carcinoma cell line panel, SRB-assay; conditions: Homo sapiens, COLO 205, 96 h, read-out: 96-h IC50 cytotoxicity
# Protocol: as §1
# [12] = system: SKOV-3; assay: Carcinoma cell line panel, SRB-assay; conditions: Homo sapiens, SK-OV-3, 96 h, read-out: 96-h IC50 cytotoxicity
# Protocol: as §1
# [13] = system: LIM1215; assay: Carcinoma cell line panel, SRB-assay; conditions: LIM1215, 96 h, read-out: 96-h IC50 cytotoxicity
# Protocol: as §1
# [14] = system: CH1; assay: Carcinoma cell line panel, SRB-assay; conditions: Homo sapiens, CH1, 96 h, read-out: 96-h IC50 cytotoxicity
# Protocol: as §1
# [15] = system: BE; assay: Carcinoma cell line panel, SRB-assay; conditions: 96 h, read-out: 96-h IC50 cytotoxicity
# Protocol: as §1
# [16] = system: HL60 cells; assay: Intracellular stability; format: in vitro ADME; conditions: 15 μM for 1 h, washed, 1 additional h neat medium
# Protocol: After the incubation, cells were washed extensively with PBS until no test compound was detectable in the washes. Cells were incubated for one additional h with neat medium. Afterwards the cells were pelleted, resuspended in 50 mM Tris pH 7.5, containing a cocktail of protease inhibitors and they were solubilised by ultrasonication for 1 min. The insoluble fraction was pelleted for 15 min using an Eppendorf centrifuge and the supernatant was analysed by anal. RP-HPLC (0-60% MeCN gradient, λ=254 nm).
# [17] = Serum stability of drug-ester linkages; format: in vitro ADME; conditions: bovine, 10% FCS in DMEM, 1 to 40 μM, 37° C., appearance of free drug, read-out: Serum t1/2 of Drug-Linker Ester bond
# Protocol: Hydrolysis of the ester bonds between the drug hydroxy groups and the linker carboxyl groups was assessed by appearance of free podophyllotoxin or paclitaxel.
# [18] = in vitro; conditions: for half-life: bovine, serum
# Protocol: Test compounds were dissolved in cell-conditioned tissue culture medium (10% FCS in DMEM) at concentrations varying from 1 to 40 μM. The solutions were incubated at 37° C. and samples were withdrawn at intervals. After filtration, aliquots were analysed by RP-HPLC (using a photodiode array UV detector). Intact vectors were identified by reference to chromatograms obtained with authentic peptides and by DE MALDI-TOF analysis of appropriate peak fractions. […] The latter was chosen preferentially in order to replicate the conditions used for cytotoxicity assays on cell cultures.
# [19] = system: A549 lung carcinoma; assay: Cytotoxic activity, MTT-assay; format: cell-based; conditions: Homo sapiens
# Protocol: (§2) Assay procedure—Cells were seeded into 96-well plates at 2,500 cells per well in DMED, containing 10% FCS and antibiotics. After overnight incubation, test compounds were prepared as dilution series in cell medium (addition of dimethylsulfoxide in the case of free paclitaxel to effect partial dissolution) and were added to the cells. For the 1-h exposure samples, incubation was continued for 1 h, cell culture medium supernatants were removed and the wells were further washed with cell culture medium (5×2 min). Total viable cells were quantitated after a total of 72 h incubation using a standard MTT-assay.
# [20] = system: MCF7 breast carcinoma; assay: Cytotoxic activity, MTT-assay; format: cell-based; conditions: Homo sapiens
# Protocol: as §2
# Chain of purified recombinant human topoisomerase II (P11388 whole entry): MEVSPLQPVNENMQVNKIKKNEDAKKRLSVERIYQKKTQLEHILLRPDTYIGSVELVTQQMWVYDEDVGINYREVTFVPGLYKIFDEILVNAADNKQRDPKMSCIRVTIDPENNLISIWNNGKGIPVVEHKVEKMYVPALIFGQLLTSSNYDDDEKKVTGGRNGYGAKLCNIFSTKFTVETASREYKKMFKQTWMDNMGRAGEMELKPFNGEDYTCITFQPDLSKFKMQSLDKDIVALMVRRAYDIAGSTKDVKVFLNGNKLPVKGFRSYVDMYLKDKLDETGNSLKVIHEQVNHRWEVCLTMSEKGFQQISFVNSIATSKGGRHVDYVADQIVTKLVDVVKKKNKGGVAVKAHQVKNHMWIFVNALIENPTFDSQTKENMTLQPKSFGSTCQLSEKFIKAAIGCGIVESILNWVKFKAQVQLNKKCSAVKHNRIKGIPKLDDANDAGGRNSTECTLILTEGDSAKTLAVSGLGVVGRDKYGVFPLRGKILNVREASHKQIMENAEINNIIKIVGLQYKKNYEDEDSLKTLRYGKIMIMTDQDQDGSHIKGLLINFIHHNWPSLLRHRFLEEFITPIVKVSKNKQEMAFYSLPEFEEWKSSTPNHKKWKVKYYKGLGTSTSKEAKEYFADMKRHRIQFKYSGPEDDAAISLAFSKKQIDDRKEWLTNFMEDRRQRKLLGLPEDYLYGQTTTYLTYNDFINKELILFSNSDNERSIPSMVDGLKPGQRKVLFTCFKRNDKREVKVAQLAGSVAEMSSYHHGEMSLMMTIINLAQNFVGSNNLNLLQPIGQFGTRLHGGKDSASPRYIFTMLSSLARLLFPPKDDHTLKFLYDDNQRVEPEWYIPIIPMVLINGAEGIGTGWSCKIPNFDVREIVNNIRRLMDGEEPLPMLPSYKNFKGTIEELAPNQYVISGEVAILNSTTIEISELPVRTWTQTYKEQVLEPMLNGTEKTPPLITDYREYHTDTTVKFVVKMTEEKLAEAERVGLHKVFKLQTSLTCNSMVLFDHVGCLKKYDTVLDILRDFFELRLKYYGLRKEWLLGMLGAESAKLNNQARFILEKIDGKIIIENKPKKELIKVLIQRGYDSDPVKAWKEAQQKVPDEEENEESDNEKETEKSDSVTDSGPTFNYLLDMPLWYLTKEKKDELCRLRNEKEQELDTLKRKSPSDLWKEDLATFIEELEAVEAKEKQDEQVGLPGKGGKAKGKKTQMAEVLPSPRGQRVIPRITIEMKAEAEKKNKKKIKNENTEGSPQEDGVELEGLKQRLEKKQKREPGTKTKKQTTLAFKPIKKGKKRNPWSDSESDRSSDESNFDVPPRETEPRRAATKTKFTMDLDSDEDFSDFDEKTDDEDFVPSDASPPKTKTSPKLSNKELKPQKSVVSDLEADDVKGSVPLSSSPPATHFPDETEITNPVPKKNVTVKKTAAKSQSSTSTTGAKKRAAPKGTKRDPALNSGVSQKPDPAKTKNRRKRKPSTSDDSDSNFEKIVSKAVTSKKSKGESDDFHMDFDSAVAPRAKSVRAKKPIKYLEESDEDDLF
molecule,measurement,setting,value
COc1cc([C@@H]2c3cc4c(cc3[C@@H](Nc3ccc(N)cc3)[C@H]3COC(=O)[C@H]23)OCO4)cc(OC)c1O [4′-Demethyl-4-(4″-aminoanilino)epipodophyllotoxin],Activity observed,[1],I
COc1cc([C@@H]2c3cc4c(cc3[C@@H](O[C@@H]3O[C@@H]5CO[C@@H](C)O[C@H]5[C@H](O)[C@H]3O)[C@H]3COC(=O)[C@H]23)OCO4)cc(OC)c1O [Etoposide],IC50,[2],1900 nM
same,IC50,[3],680 nM
same,IC50,[4],210 nM
same,IC50,[5],580 nM
same,IC50,[6],570 nM
same,IC50,[7],6600 nM
same,IC50,[8],460 nM
same,IC50,[9],2600 nM
same,IC50,[10],145 nM
same,IC50,[11],800 nM
same,IC50,[12],13000 nM
same,IC50,[13],330 nM
same,IC50,[14],165 nM
same,IC50,[15],1100 nM
CCC(C)[C@H](NC(=O)[C@H](CCCCN)NC(=O)[C@@H](NC(=O)[C@H](CCC(N)=O)NC(=O)[C@H](CCCNC(=N)N)NC(=O)[C@@H](N)CSC1CC(=O)N(CCC(=O)O[C@H]2c3cc4c(cc3[C@@H](c3cc(OC)c(OC)c(OC)c3)[C@H]3C(=O)OC[C@@H]32)OCO4)C1=O)C(C)CC)C(=O)N[C@@H](Cc1c[nH]c2ccccc12)C(=O)N[C@@H](Cc1ccccc1)C(=O)N[C@@H](CCC(N)=O)C(=O)N[C@@H](CC(N)=O)C(=O)N[C@@H](CCCNC(=N)N)C(=O)N[C@@H](CCCNC(=N)N)C(=O)N[C@@H](CCSC)C(=O)N[C@@H](CCCCN)C(=O)N[C@@H](Cc1c[nH]c2ccccc12)C(=O)N[C@@H](CCCCN)C(=O)N[C@@H](CCCCN)C(N)=O (stereo partly shown) [A],Intact test compound in supernatant of solubilised cells,[16]; RP-HPLC and MALDI-TOF MS,Intact test compound was identified
same,Test compound in DMSO extracts of pellets,[16]; insoluble fraction,no test compound was detected
same,half-life,[17],> 24 h
RQIKIWFQNRRMKWK [15mer peptide],Serum stability of vector in words,[18],survive for several h
CC[C@H](C)[C@H](NC(=O)[C@H](CCCCN)NC(=O)[C@@H](NC(=O)[C@H](CCC(N)=O)NC(=O)[C@@H](N)CCCNC(=N)N)[C@@H](C)CC)C(=O)N[C@@H](Cc1c[nH]c2ccccc12)C(=O)N[C@@H](Cc1ccccc1)C(=O)N[C@@H](CCC(N)=O)C(=O)N[C@@H](CC(N)=O)C(=O)N[C@@H](CCCNC(=N)N)C(=O)N[C@@H](CCCNC(=N)N)C(=O)N[C@@H](CCSC)C(=O)N[C@@H](CCCCN)C(=O)N[C@@H](Cc1c[nH]c2ccccc12)C(=O)N[C@@H](CCCCN)C(=O)N[C@@H](CCCCN)C(N)=O,half-life,[18],> 12 h
CCC(C)[C@H](NC(=O)[C@H](CCCCN)NC(=O)[C@@H](NC(=O)[C@H](CCC(N)=O)NC(=O)[C@H](CCCNC(=N)N)NC(=O)[C@@H](N)CSCC(=O)O[C@H]1c2cc3c(cc2[C@@H](c2cc(OC)c(OC)c(OC)c2)[C@H]2C(=O)OC[C@@H]21)OCO3)C(C)CC)C(=O)N[C@@H](Cc1c[nH]c2ccccc12)C(=O)N[C@@H](Cc1ccccc1)C(=O)N[C@@H](CCC(N)=O)C(=O)N[C@@H](CC(N)=O)C(=O)N[C@@H](CCCNC(=N)N)C(=O)N[C@@H](CCCNC(=N)N)C(=O)N[C@@H](CCSC)C(=O)N[C@@H](CCCCN)C(=O)N[C@@H](Cc1c[nH]c2ccccc12)C(=O)N[C@@H](CCCCN)C(=O)N[C@@H](CCCCN)C(=O)O (stereo partly shown) [B],half-life,[17],0.667 h
"CC[C@H](C)[C@H](NC(=O)[C@H](CCCCN)NC(=O)[C@@H](NC(=O)[C@H](CCC(N)=O)NC(=O)[C@H](CCCNC(=N)N)NC(=O)[C@@H](N)CSC1CC(=O)N(CCC(=O)O[C@@H](C(=O)O[C@H]2C[C@@]3(O)[C@@H](OC(=O)c4ccccc4)[C@@H]4[C@]5(OC(C)=O)CO[C@@H]5C[C@H](O)[C@@]4(C)C(=O)[C@H](OC(C)=O)C(=C2C)C3(C)C)[C@@H](NC(=O)c2ccccc2)c2ccccc2)C1=O)[C@@H](C)CC)C(=O)N[C@@H](Cc1c[nH]c2ccccc12)C(=O)N[C@@H](Cc1ccccc1)C(=O)N[C@@H](CCC(N)=O)C(=O)N[C@@H](CC(N)=O)C(=O)N[C@@H](CCCNC(=N)N)C(=O)N[C@@H](CCCNC(=N)N)C(=O)N[C@@H](CCSC)C(=O)N[C@@H](CCCCN)C(=O)N[C@@H](Cc1c[nH]c2ccccc12)C(=O)N[C@@H](CCCCN)C(=O)N[C@@H](CCCCN)C(N)=O (single isomer, unassigned) [C]",half-life,[17]; cell-conditioned tissue culture medium (FCS in DMEM),> 12 h
CC(=O)O[C@H]1C(=O)[C@@]2(C)[C@H]([C@H](OC(=O)c3ccccc3)[C@]3(O)C[C@H](OC(=O)[C@H](O)[C@@H](NC(=O)c4ccccc4)c4ccccc4)C(C)=C1C3(C)C)[C@]1(OC(C)=O)CO[C@@H]1C[C@@H]2O [Paclitaxel],IC50,[2],< 2.5 nM
same,IC50,[3],5.1 nM
same,IC50,[4],< 2.5 nM
same,IC50,[5],2.85 nM
same,IC50,[6],54 nM
same,IC50,[7],540 nM
same,IC50,[8],8.5 nM
same,IC50,[9],< 2.5 nM
same,IC50,[10],5.8 nM
same,IC50,[11],2.6 nM
same,IC50,[12],10 nM
same,IC50,[13],5.8 nM
same,IC50,[14],4.15 nM
same,IC50,[15],< 2.5 nM
same,IC50,"[19]; 72 h, A549, Exposure time 3 d",< 15 nM
same,IC50,"[19]; A549, Exposure time 1 h, then washed, viable cells after total 72 h",28 nM
same,IC50,"[20]; 72 h, MCF7, Exposure time 3 d",< 15 nM
same,IC50,"[20]; MCF7, Exposure time 1 h, then washed, viable cells after total 72 h",40 nM
CC[C@@H](C)[C@@H](NC(=O)[C@@H](CCCCN)NC(=O)[C@H](NC(=O)[C@@H](CCC(N)=O)NC(=O)[C@H](N)CCCNC(=N)N)[C@H](C)CC)C(=O)N[C@H](Cc1c[nH]c2ccccc12)C(=O)N[C@H](Cc1ccccc1)C(=O)N[C@H](CCC(N)=O)C(=O)N[C@H](CC(N)=O)C(=O)N[C@H](CCCNC(=N)N)C(=O)N[C@H](CCCNC(=N)N)C(=O)N[C@H](CCSC)C(=O)N[C@H](CCCCN)C(=O)N[C@H](Cc1c[nH]c2ccccc12)C(=O)N[C@H](CCCCN)C(=O)N[C@H](CCCCN)C(N)=O [H-D-Arg-D-Gln-D-Ile-D-Lys-D-Ile-D-Trp-D-Phe-D-Gln-D-Asn-D-Arg-D-Arg-D-Met-D-Lys-D-Trp-D-Lys-D-Lys-NH3],half-life,[18],> 24 h
H-RRMKWKK-NH2 [H-Arg-Arg-Met-Lys-Trp-Lys-Lys-NH2],half-life,[18],3 h
4′-Demethyl-4-[4″-aminoanilino-(succinimidopropionoyl)-(H-Cys-βAla-Arg-Arg-Met-Lys-Trp-Lys-Lys-NH2)]epipodophyllotoxin,Activity observed,[1],I
